Assays:
[1] = tested on: ZO-1; experiment: Tight junction protein ZO-1 in bladder of SCI model, Western blot; assay type: in vivo, Sprague-Dawley rats; details: SCI day 1, Western blot
[2] = tested on: astrocytes (GFAP); experiment: Astrocyte activation in spinal cord of SNI model, GFAP immunohistochemistry and Western blot; assay type: in vivo, Sprague-Dawley rats; details: L4-5 spinal cord
[3] = tested on: p38MAPK; experiment: p38MAPK phosphorylation in spinal cord of SNI model, Western blot; assay type: in vivo, Sprague-Dawley rats
Description: (§1) To be used as a peripheral nerve injury animal model, a sciatic nerve injury (SNI) model was prepared (FIG. 1C). Specifically, 200 to 220 g of male adult Sprague-Dawley rats were anesthetized by intraperitoneal injection of chloral hydrate (500 mg/kg), and then three terminal branches (tibial, common peroneal, and sural nerves) of the right sciatic nerve were approached, and the tibia nerve and the peroneal nerve were tightly ligated with 4-0 silk, and neurectomy was performed at a distal 3 mm position of the ligation site. At this time, a Sham group was a group that exposed only the sciatic nerve without damage.
To analyze the activation of microglia in the spinal cord, which were known to play an important role in the induction/persistence of neuropathic pain, 4 weeks after nerve injury in the SNI animal model, the spinal cord of 4 and 5 lumbar vertebrae was stained with OX-42 to confirm changes in cell shape and intensity. […] The supernatant was transferred to a new microcentrifuge, the protein concentration was measured using a BCA kit, and samples for Western blot were prepared by adding a 1× sample buffer and boiling for 5 minutes. […]

[4] = tested on: spleen of psoriasis mouse model; experiment: Spleen hypertrophy in IMQ psoriasis model; assay type: in vivo, C57BL/6 mouse; details: Day 6, vs Vehicle
Description: (§2) Psoriasis caused by excessive production of skin cells was a chronic skin disease associated with various factors, including autoimmune diseases, and its symptoms included red and thickened skin and abnormally occurring scaling. […] Specifically, the back region of a C57BL/6 mouse (male, 18 to 20 g, 8 weeks) (Daehan Biolink, Eumseong, Korea) was shaved to remove hair, and then applied with IMQ cream (83 mg/day) (5%) for consecutive 5 days from Day 0 to Day 4 to induce psoriasis-like skin inflammation, and a normal control mouse (Sham) was applied with Vaseline cream (FIG. 16A).
(§3) In order to confirm the effect of YJ102 (Chemical Formula 1), a compound of the present disclosure, on psoriasis, YJ102 dissolved in DMSO, methyl pyrrolidinone, and water (1:1.5:1) was administered intraperitoneally (5 mg/kg) for a total of 3 days on Day 2, Day 3, and Day 4, and the Vehicle group was administered in the same amount of a solution of DMSO, methyl pyrrolidinone, and water (1:1.5:1) (FIG. 16A). To assess daily skin changes, PASI scores were used for erythema and scaling. The PASI score was evaluated as a severity scale of 0 to 4, in which 0 meant none, 1 meant mild, 2 meant moderate, 3 meant severe, and 4 meant very severe. (PASI Reference: Yashpal Manchanda, Abhishek De, Sudip Das, and Disha Chakraborty. Disease Assessment in Psoriasis. Indian J Dermatol. 2023 May-June; 68 (3): 278-281.) […]

[5] = tested on: inflammatory factors (IL-6, iNOS, COX-2, IL-1β, TNF-α, MIP-1α, MIP-1β, MIP-2α, Gro-α, and MCP-1); experiment: Inflammatory factor expression in spinal cord of SNI model, RT-PCR and Western blot; assay type: in vivo, Sprague-Dawley rats; details: ipsilateral L4-5 spinal cord
Description: as §1
It was known that when neuropathic pain occurred, the activation of microglia and astrocytes expressed inflammatory factors including cytokines and chemokines to cause excessive excitation of surrounding neurons. Therefore, in order to confirm changes in inflammatory factor expression by YJ102 administration in the SNI animal model 4 weeks after nerve injury, RNA and protein were extracted from L4-5 spinal cord tissue and RT-PCR and Western blot analysis were performed. Specifically, for RT-PCR analysis, RNA was isolated from spinal cord tissue sections using a TRIZOL Reagent (Invitrogen) according to a manual, and 20 μl of the total mixture was prepared by using 1 μg of total RNA, and cDNA was synthesized using MMLV reverse transcriptase (Invitrogen). […]

[6] = tested on: sedation; experiment: Sedation as side effect of the drug; assay type: in vivo, Sprague-Dawley rats; details: 100 mg/kg
[7] = tested on: skin tissue of psoriasis mouse model; experiment: Epidermal layer thickness and dermal cell introduction (H&E) in IMQ psoriasis model; assay type: in vivo, C57BL/6 mouse; details: 5 mg/kg i.p. Days 2-4, Day 6
Description: as §2
as §3, with “severe.” for “severe. (PASI Reference: Yashpal Manchanda, Abhishek De, Sudip Das, and Disha Chakraborty. Disease Assessment in Psoriasis. Indian J Dermatol. 2023 May-June; 68 (3): 278-281.)”
On day 6, the skin tissue of the psoriasis mouse model was stained with Hematoxyline & Eosin, and the epidermal layer thickness was measured. […]

**Q.** What does the source list for `CCc1ccc(N(C(=O)COC)c2nc3cc(Cl)ccc3o2)cc1` [YJ102]?
**A.** reduction in amount of ZO-1 [1]: significantly inhibited; GFAP expression ([2]; Western blot): significantly decreased; GFAP expression intensity ([2]; immunohistochemistry): significantly decreased; amount of p-p38MAPK [3]: significantly reduced; size of the spleen [4]: significantly reduced; weight of the spleen [4]: significantly reduced; expression of inflammatory factors ([5]; RT-PCR): significantly reduced; expression of inflammatory factors ([5]; Western blot): significantly reduced; sedation [6]: sedation was not observed; number of cells introduced into the dermal layer [7]: decreased to the Sham level; reduction of epidermal layer thickness compared to Vehicle group [7]: approximately 35%

— US20260335293A1, “USE OF NOVEL COMPOUND FOR TREATING INTRACTABLE DISEASES” (YJ CERAPEUTICS INC., priority 2023, published 2026)
